Columns and labels:
HCT-15 cells = experiment: Effect of MDR1 knockdown on drug resistance of HCT-15 cells; type: cell-based; conditions: 10 nM siRNA; drug 72 h; compared with control siRNA
Method: HCT-15 cells, which express high endogenous levels of MDR1, were reverse transfected with MDR1-specific (SEQ ID NO: 4976 (DNA), and SEQ ID NO: 5271 (RNA)) or control siRNAs (SEQ ID NO: 4804 (DNA), and SEQ ID NO: 5301 (RNA)) at a final concentration of 10 nM. Lipofectamine-siRNA complexes were made by adding 0.3 μl Lipofectamine RNAiMAX in 10 μl RPMI to an equivalent volume of medium containing siRNA, such that the final siRNA concentration would be 10 nM. This mixture was incubated at room temperature for 20 minutes to allow complexes to form, after which time 1,500 HCT-15 cells in 100 μl RPMI supplemented with 10% FCS were added to the wells. […] Drugs used were Doxorubicin (Sigma, St. Louis Mo.), Paclitaxel (Invitrogen) and Etoposide (Sigma, St. Louis Mo.). At the conclusion of the assay, medium was removed and growth inhibition determined as described above.

[1] = system: target transcript mRNA in A549 cells; experiment: Level of mRNA of target transcript in A549 cells by quantitative RT-PCR (Tables 12 and 13); type: cell-based, human; conditions: 24 h post-transfection
Method in brief: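 A549 cells were transfected with siRNA at 0.1, 1.0 and 10 nM. RNA was extracted 24 h later, reverse-transcribed with random primers, and target mRNA quantified by SYBR Green qRT-PCR. Values were normalised to housekeeping genes HPRT and Lamin.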

A549 cells = experiment: Growth inhibition of siRNA-transfected A549 cells, SYBR Green I DNA content; type: cell-based, human
Method in brief: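 A549 cells reverse-transfected with 10 nM Stealth siRNAs via Lipofectamine RNAiMAX, seeded at 5×10^3 cells/cm^2 in RPMI 1640/10% FCS; non-specific siRNA control. DNA content read 96 h post-transfection by SYBR Green I fluorescence (ex 485/em 535 nm) after freeze-thaw and Triton X-100 lysis; mean of three wells.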

wt HCT-116 cells = experiment: Growth inhibition of siRNA-transfected wt HCT-116 cells, SYBR Green I DNA content; type: cell-based
Method: (§1) A549 cells (human lung cancer cell line; ATCC No. CCL-185), SK-MeI-5 cells (human melanoma cell line; ATCC No. HTB-70), MCF-7 cells (human adenocarcinoma cell line; ATCC No. HTB-22), HCT-116 cells (colorectal carcinoma; ATCC CCL-247) and HCT-116 p53 null cells (derived from ATCC No. CCL-247; Bunz et al., Science 282:1497-1501, 1998) were cultured in RPMI 1640 medium with 10% v/v heat-inactivated fetal calf serum (FCS). Cells were seeded at a density of 5×10^4 cells/cm^2 in multi-well tissue culture plates. Sequences of Stealth™ siRNA duplexes (Invitrogen) targeting human ribonucleotide reductase subunit 1 (SEQ ID NO: 22) and subunit 2 (SEQ ID NO; 38) are given in SEQ ID NO: 4830-4832 (DNA), and SEQ ID NO: 5136-5138 (RNA) for RRM1, and SEQ ID NO: 5306-5308 (DNA), and SEQ ID NO: 5303-5305 (RNA) for RRM2. siRNAs were transfected at different concentrations into cells using Lipofectamine™ RNAiMAX transfection reagent (Invitrogen). Non-specific siRNA (SEQ ID NO: 4804 and 4805 (DNA), and SEQ ID NO: 5301 and 5302 (RNA)) were used as controls. The cellular DNA content was measured using a SYBR Green I-based fluorometric assay at 24, 48, 72 and 96 hours after transfection (120 hours for the MCF-7 cells), as follows. At the indicated time points following reverse transfection, cells were harvested and frozen at −80° C. overnight. Cells were thawed and cell lysis buffer (phosphate-buffered saline (PBS) containing 1% Triton X-100, pH 7) and SYBR Green I (1:10^5 V/V; Invitrogen) was added to the wells and incubated overnight in the dark at 4° C.
(§2) The following day, cell lysates were mixed thoroughly, and DNA fluorescence was measured with a Wallac Victor^2 plate reader (Turku, Finland) set at an excitation frequency of 485 nm and measuring emission at 535 nm.
(§3) To determine the effect of the p53-status of cells on RRM1 and RRM2 knockdown, growth inhibition of wild type (wt) HCT-116 and p53 null HCT-116 cells by RRM1 and RRM2-targeted siRNA were determined. Cells were reverse transfected with 1.0 and 10 nM RRM1-3 (SEQ ID NO: 4832 (DNA), and SEQ ID NO: 5138 (RNA)), 1.0 and 10 nM RRM2-2 (SEQ ID NO: 5307 (DNA), and SEQ ID NO: 5304 (RNA)) or 10 nM control siRNA (SEQ ID NO: 4804 (DNA), and SEQ ID NO: 5301 (RNA)), and growth measured daily for up to 4 days post transfection.
(§4) siRNA-mediated RNAi was also determined on a panel of different cell lines. A549, SK-MeI-5, wt HCT-116, HCT-116−/−p53 and MCF-7 cells were transfected with 10 nM siRNAs targeting YBX-1 and growth inhibition determined as described above. The YBX1 siRNAs are given in SEQ ID NO: 4981 to 4985 (DNA) and SEQ ID NO: 5276-5280 (RNA). A non-specific siRNA (SEQ ID NO: 4804 (DNA) and SEQ ID NO: 5301 (RNA)) was used as control. Growth inhibition by the siRNAs, given in Table 14, was standardized against the inhibition obtained with the control siRNA.
HCT-116 and A549 cells were transfected with 0.1, 1.0 and 10 nM siRNA targeting TYMS and DHFR (SEQ ID NO: 4833 to 4838 (DNA), and SEQ ID NO: 5139-5144 (RNA)) using Lipofectamine™ RNAiMAX and incubated for 96 h, in either normal fetal calf serum or serum dialyzed to remove low molecular weight molecules (cut-off 10 kDa). Growth of cells was measured by measuring the total DNA content per well using the SYBR Green assay as described above, and values are given as the percentage of the averaged control values. […] Inhibition increased with increasing siRNA concentration, which was not observed with a non-specific control siRNA. […]

HCT-116 p53 null cells = experiment: Growth inhibition of siRNA-transfected p53 null HCT-116 cells, SYBR Green I DNA content; type: cell-based
Method: as §1, §2, §3, §4

SK-Mel-5 cells = experiment: Growth inhibition of siRNA-transfected SK-Mel-5 cells, SYBR Green I DNA content; type: cell-based, human
Method: as §1, §2
siRNA-mediated inhibition of cancer cell growth using siRNA targeting the YBX1 gene (SEQ ID NO: 92) was determined as follows. SK-MeI-5 cells were cultured in RPMI 1640 medium with 10% v/v heat-inactivated fetal calf serum. Cells were cultured as described above and reverse transfected with 0.1, 1.0, 10 and 40 nM (final concentration) of a pool of YBX1-targeting siRNAs (SEQ ID NO: 4982 and 4983 (DNA), and SEQ ID NO: 5277 and 5278 (RNA); referred to as 994 and 995 in FIG. 19) or a non-specific control (SEQ ID NO: 4804 (DNA), and SEQ ID NO: 5301 (RNA); referred to as Stealth 81 ctrl in FIG. 19), and cell growth determined after 120 h by measuring DNA fluorescence with a Wallac Victor^2 plate reader (Turku, Finland) set at an excitation frequency of 485 nm and measuring emission at 535 nm. Growth inhibition by the siRNA pool was standardized against the inhibition obtained with the control siRNAs.
as §4

YBX1 mRNA = YBX1 mRNA level by quantitative RT-PCR in A549 cells; type: cell-based, human; conditions: 10 nM siRNA; 24 h post-transfection
Method: A549 cells were transfected with 10 nM RRM1-1 (SEQ ID NO: 4830 (DNA), and SEQ ID NO: 5136 (RNA); light grey bar in FIG. 12A), RRM1-2 (SEQ ID NO: 4831 (DNA), and SEQ ID NO: 5137 (RNA); dark grey bar in FIG. 12A), RRM1-3 (SEQ ID NO: 4832 (DNA), and SEQ ID NO: 5138 (RNA); black bar in FIG. 12A) or control siRNA (SEQ ID NO: 4804 (DNA), and SEQ ID NO: 5301 (RNA)) (open bar in FIG. 12A) and relative mRNA levels quantified 24 h post-transfection. RNA was purified from cells using Trizol® extraction as per the manufacturer's protocol (Invitrogen). cDNA was prepared by digesting approximately 200 ng purified RNA with DNAse I (Invitrogen) for 15 minutes at room temperature, followed by 15 minutes at 65° C. in the presence of 25 mM EDTA. 30 ng random primers were added and incubated for 10 minutes at room temperature, 1 minute on ice; Superscript III polymerase (Invitrogen) was added in presence of 5 nM DTT (Sigma, St Louis, Mo.) and 1 mM deoxyribonucleotides (Invitrogen), and the reaction incubated at 25° C. for 5 minutes, followed by an hour at 55° C. cDNA was diluted 1:3 in 10 mM Tris pH 7.0, and quantitative RT-PCR carried out on an ABI Prism 7900HT (Applied Biosciences, Inc., Foster City, Calif.) using FastStart TaqMan SYBRGreen (Roche, Basel, Switzerland) and specific primers at 360 nM for RRM1 and RRM2 and the housekeeping genes HPRT and Lamin. Primer sequence pairs used for RRM1, RRM2, HPRT and lamin are given in SEQ ID NO: 4881 and 4882; 4883 and 4884; 4885 and 4886; 4887 and 4888 respectively.
A549 cells were transfected with 0.1, 1.0 and 10 nM siRNA (given in SEQ ID NO: 4981 to 4985 (DNA), and SEQ ID NO: 5276-5280 (RNA)) and the relative mRNA levels quantified 24 h post-transfection as described in Example 8.

[2] = 1 nM p53 siRNA with 1 nM YBX1 siRNA SEQ ID NO: 4982
[3] = 10 nM siRNA, standardized against control siRNA

SEQ ID NO: 4976: MDR1-specific siRNA (ABCB1) (chain 1 TTAGCTTCCAACCACGTGTAAATCC; chain 2 UUAGCUUCCAACCACGUGUAAAUCC; chemistry not given here; one strand in two spellings)
sensitivity to doxorubicin, HCT-15 (HCT-15 cells): more sensitive
sensitivity to etoposide, HCT-15 (HCT-15 cells): more sensitive
sensitivity to paclitaxel, HCT-15 (HCT-15 cells): more sensitive
mRNA knockdown of transporter gene target transcript, 0.1 nM ([1]; 0.1 nM siRNA): − (<50% mRNA knockdown)
mRNA knockdown of transporter gene target transcript, 1 nM ([1]; 1 nM siRNA): − (<50% mRNA knockdown)
Growth Inhibition in A549 cells by 10 nM siRNA (A549 cells; A549 cells, 10 nM siRNA, DNA content 96 hours after transfection, transporter gene targets): − (no growth inhibition)

SEQ ID NO: 5110: p53-targeting Stealth siRNA (chain 1 GCCAAGTCTGTGACTTGCACGTACT; chain 2 GCCAAGUCUGUGACUUGCACGUACU; Stealth siRNA, chemical pattern not given here; one strand in two spellings) [reference compound]
effect of p53 siRNA co-transfection on YBX1 siRNA-mediated growth inhibition, A549 (A549 cells; 5 nM p53 siRNA with 5 nM YBX1 siRNA SEQ ID NO: 4982): only partial abrogation of growth inhibition
effect of p53 siRNA co-transfection on YBX1 siRNA-mediated growth inhibition, wt HCT-116 (wt HCT-116 cells; [2]): only partial abrogation of growth inhibition
effect of p53 siRNA co-transfection on YBX1 siRNA-mediated growth inhibition, HCT-116−/−p53 (HCT-116 p53 null cells; [2]): only partial abrogation of growth inhibition
effect of p53 siRNA co-transfection on YBX1 siRNA-mediated growth inhibition, SK-MeI-5 (SK-Mel-5 cells; [2]): completely ablated growth inhibition

SEQ ID NO: 4832: Stealth siRNA targeting RRM1 (chain 1 ATTCAAAGATGTCTAAATGCCAAGG; chain 2 AUUCAAAGAUGUCUAAAUGCCAAGG; Stealth siRNA, chemical pattern not given here; one strand in two spellings)
Growth Inhibition in A549 cells (A549 cells; 10 nM siRNA, DNA content 96 hours after transfection): ++ (inhibits by at least 75%)
duration of growth inhibition post-transfection, A549 (A549 cells; 1 and 10 nM siRNA, measured daily for up to ten days): at least 10 days
growth inhibition, p53 wt HCT-116 (wt HCT-116 cells; 1.0 and 10 nM siRNA, up to 4 days, compared with p53 null): equally growth inhibitory
growth inhibition, p53 null HCT-116 (HCT-116 p53 null cells; 1.0 and 10 nM siRNA, up to 4 days, compared with p53 wt): equally growth inhibitory

SEQ ID NO: 4981: siRNA targeting YBX1 (chain 1 TGGATAGCGTCTATAATGGTTACGG; chain 2 UGGAUAGCGUCUAUAAUGGUUACGG; chemistry not given here; one strand in two spellings)
growth inhibition, A549 cells (A549 cells; [3]): + (At least 20% inhibition)
YBX1-specific reduction of mRNA levels in A549 cells (YBX1 mRNA): ++ (At least 50% inhibition)
growth inhibition, SK-Mel-5 cells (SK-Mel-5 cells; [3]): ++ (At least 50% inhibition)
